# According to publication PMC6482291, “Anticonvulsant Activity of Pterostilbene in Zebrafish and Mouse Acute Seizure Tests” (Neurochemical Research, 2019):
# How the values were obtained:
# mice [1] = assay: Grip-strength test; assay type: in vivo; details: for Neuromuscular strength: 30 min before test
# Method: The acute effect of PTE on the skeletal muscles strength in mice was determined in the grip strength test. The apparatus for this test (BioSeb, Chaville, France) consisted of a steel wire grid (8 × 8 cm) connected to an isometric force transducer. Each mouse was lifted by tail and allowed to grasp the grid with its forepaws and then it was gently pulled backward until its released the grid. The maximal force in newtons (N) exerted by mouse before leaving the grid was recorded. The mean of three consecutive measurements for each animal was calculated and normalized to body weight (mN/g).
# Experimental groups consisted of 12 animals. Results obtained in the grip-strength test were compared using one-way ANOVA followed by the Tukey’s post-hoc multiple comparison test.
# [2] = test system: maximal electroshock seizures; assay: MES test (supramaximal stimulation); assay type: in vivo; details: ED50 could not be determined
# [3] = test system: 6 Hz-induced psychomotor seizures in mice; assay: 6 Hz psychomotor seizure test with supramaximal stimulation (32 and 44 mA); assay type: in vivo; details: Mus musculus, ip, 30 min before test
# Source text: Psychomotor (limbic) seizures were induced by transcorneal stimulation (6 Hz, 0.2 ms rectangular pulse, 3 s duration) generated by a Grass S48 stimulator coupled with a constant current unit CCU1 (both from Grass Technologies, West Warwick, RI, USA). Before stimulation a drop of ocular anesthetic, 1% tetracaine hydrochloride solution, was applied into the animals’ corneas. The electrodes were soaked in saline to ensure the good electrical contact. During the stimulation animals were restrained manually and immediately after the stimulation were placed in a Plexiglas box for observation of presence or absence of the psychomotor seizures. These seizures were characterized by immobilization or stun, often associated with rearing, forelimb clonus, twitching of vibrissae and elevated tail (Straub-tail), lasting at least 10 s from the stimulation. Lack of the above symptoms or their cessation within 10 s from the stimulation was considered as absence of seizure activity.
# In the present study two 6 Hz-induced psychomotor seizure tests were performed: (1) the 6 Hz psychomotor seizure threshold test which employed stimulation at varied current intensities, and (2) the 6 Hz psychomotor seizure test with supramaximal stimulation at 32 mA and 44 mA. […]
# [4] = set-up: method as in PMID 25047917; details: after oral administration; cited from earlier work
# mice [5] = assay: Chimney test; assay type: in vivo; details: for Impairment of motor coordination (percentage of animals): 30 min before test
# Method: The chimney test was performed to evaluate influence of PTE on motor coordination in mice. During the test mice had to climb backwards up the plastic transparent cylinder (inner diameter 3 cm and length 30 cm) with gravelly inside. The inability of mice to escape from the cylinder within 60 s was considered as an motor impairment. Results obtained in the test were presented as percent of impaired mice in groups of 10–12 animals and were compared with the Fisher’s exact probability test.
# [6] = test system: PTZ-induced seizure-like behavior in zebrafish larvae; assay: Larval zebrafish PTZ seizure assay, locomotor activity tracking; assay type: in vivo, Danio rerio; details: 10 µM PTE, 2 h incubation, 20 mM PTZ; vs vehicle + PTZ
# Method: The locomotor activity of larvae was assessed as previously described. A single 117 hpf zebrafish larvae was placed in a 48-well plate (one larva per well) filled with 200 µl of vehicle or PTE solution (10 µM). Subsequently, larvae were incubated for 2 h, at 28.5 °C. Next, 100 µl of vehicle or PTZ was added to each well. Within 5 min, plates were positioned in an automated tracking device (ZebraBox, Viewpoint, Lyon, France) and larvae were tracked for 30 min, with a 5 min integration interval. All measurements were performed at the same daytime period. The […] distance (in millimeters) covered by each larva was recorded. Three independent experiments were done (n = 12/group) and the data were pooled together. […] The data were normalized against PTZ values.
# [7] = test system: maximal electroshock seizures in mice; assay: Maximal electroshock seizure threshold (MEST) test; assay type: in vivo; details: for CS50 (seizure threshold): 30 min before test, 95% confidence limits in brackets
# Source text: Seizures in the MEST test were evoked by applying a sine-wave alternating current (maximal output voltage 500 V, 50 Hz for 0.2 s) generated by constant current stimulator (Rodent Shocker, Type 221, Hugo Sachs Elektronik, Freiburg, Germany). The stimulation was delivered by saline-socked transcorneal electrodes. Before the stimulation 1% solution of tetracaine hydrochloride was applied into animals’ eyes for local anesthesia. During the stimulation animals were restrained manually and immediately after the stimulation they were placed in the Plexiglas box for observation. The endpoint evaluated in the test was the maximal electroconvulsion which was defined as extension of the hindlimbs above a 90° angle to the torso of animal.
# The threshold for maximal electroshock was determined according to the up-and-down method described by Kimball et al.. The mice in the experimental group were subjected to the stimuli with different current intensities (range of 8–30 mA) which changes in 0.06-log steps. If stimulated mouse respond with seizures, the next mouse in the group was stimulated with current of intensity 0.06-log step lower than the previous one. […] Groups of 20 stimulated animals were used to calculate the threshold current strength (CS50 in mA; the current strength which induces tonic hindlimb extension in 50% of the tested animals) with SEM.
# CS50 values were compared with one-way ANOVA followed by the Tukey’s multiple comparison test.
structure (smiles),measurement,setting,value
"COc1cc(/C=C/c2ccc(O)cc2)cc(OC)c1 [PTE, trans-3,5-dimethoxy-4′-hydroxy-trans-stilbene]",Neuromuscular strength,mice [1]; PTE 50 mg/kg ip,30.34 ± 1.16 mN/g
same,Neuromuscular strength,mice [1]; PTE 100 mg/kg ip,29.14 ± 0.95 mN/g
same,Neuromuscular strength,mice [1]; PTE 200 mg/kg ip,28.76 ± 2.16 mN/g
same,Neuromuscular strength,mice [1]; PTE 400 mg/kg ip,30.39 ± 2.17 mN/g
same,Neuromuscular strength,mice [1]; PTE 600 mg/kg ip,30.19 ± 0.97 mN/g
same,Neuromuscular strength,mice [1]; PTE 800 mg/kg ip,31.12 ± 1.44 mN/g
same,influence on muscular strength,mice [1]; PTE 50 to 800 mg/kg ip,did not significantly influence
same,anticonvulsant activity in the MES test,[2],lack of significant anticonvulsant activity
same,ED50,[3]; current intensity 32 mA,506 ± 44.7 mg/kg
same,ED50,[3]; current intensity 44 mA,541 ± 41.5 mg/kg
same,brain concentration of PTE relative to pterostilbene-4’sulphate (main metabolite),[4],nearly fivefold higher
same,time of peak in brain tissue,[4],2 h
same,Impairment of motor coordination (percentage of animals),mice [5]; PTE 50 mg/kg ip,0%
same,Impairment of motor coordination (percentage of animals),mice [5]; PTE 100 mg/kg ip,0%
same,Impairment of motor coordination (percentage of animals),mice [5]; PTE 400 mg/kg ip,0%
same,Impairment of motor coordination (percentage of animals),mice [5]; PTE 600 mg/kg ip,0%
same,influence on motor coordination,mice [5]; PTE 50–800 mg/kg ip,did not significantly influence
same,PTZ-induced locomotor activity in zebrafish larvae,[6],significantly reduced
same,CS50 (seizure threshold),[7]; PTE 100 mg/kg ip,11.40 (10.93–11.87) mA
same,CS50 (seizure threshold),[7]; PTE 200 mg/kg ip,16.22 (14.80–17.78) mA
same,increase of seizure threshold vs negative control,"[7]; PTE 200 mg/kg ip, p < 0.001",over 70%
same,seizure threshold higher than in VPA-treated group (150 mg/kg),"[7]; PTE 200 mg/kg ip, p < 0.05",15%
